# Results as given in paper PMC2719696, “Kinetics and Cellular Site of Glycolipid Loading Control the Outcome of Natural Killer T Cell Activation” (Immunity, 2009).
# Experiments:
# mCD1d = target: T1, mCD1d (Mus musculus, UniProt P11609); assay: In vitro CD1d loading assay with immobilized mCD1d, saposins or Triton X-100, DN32.D3 hybridoma IL-2 readout; format: biochemical; conditions: for effect of all four saposins on mCD1d loading: saposins 10 μg/ml
# T1 sequence (P11609 22-305 limits assumed): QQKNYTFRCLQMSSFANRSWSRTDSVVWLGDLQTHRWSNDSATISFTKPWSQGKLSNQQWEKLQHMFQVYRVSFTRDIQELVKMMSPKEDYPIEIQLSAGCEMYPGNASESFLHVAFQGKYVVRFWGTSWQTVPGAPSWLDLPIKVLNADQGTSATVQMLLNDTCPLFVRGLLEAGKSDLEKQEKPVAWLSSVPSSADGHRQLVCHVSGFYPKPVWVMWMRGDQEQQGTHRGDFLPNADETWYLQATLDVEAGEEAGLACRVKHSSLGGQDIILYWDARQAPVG
# T1 sequence (P01887 21-119 partner): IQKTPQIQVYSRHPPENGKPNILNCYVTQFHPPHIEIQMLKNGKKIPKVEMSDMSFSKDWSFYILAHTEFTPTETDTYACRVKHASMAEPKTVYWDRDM
# Protocol: Figure 5 Lack of Detergent-like Cofactor Dependence of Th2 Cell-Type Cytokine-Biasing αGalCer Analogs (A) Glycolipids were incubated for 24 hr at 37°C with murine CD1d proteins in the absence (top row) or presence (bottom row) of 0.05% Triton X-100. The resulting complexes were assembled as tetramers and used for staining mouse iNKT hybridoma DN3A4.1-2. The dashed line histograms show background staining with unloaded tetramers, and the bold histograms show staining with glycolipid loaded tetramers. (B) The same analysis as in (A) except with human CD1d tetramers, which were also used for DN3A4.1-2 staining. (C) Glycolipids at various concentrations were incubated with immobilized mCD1d protein for 2 hr in pH 7.0 or pH 5.0 buffers with no additives (medium) or in the same buffers containing the indicated purified recombinant saposins (10 μg/ml) or Triton X-100 (0.05%). After washing, DN32.D3 iNKT hybridoma cells were added and supernatant concentrations of IL-2 were determined after an additional 14 hr of incubation. All results shown (A, B, and C) were representative of at least two independent experiments.
# To extend these observations to a more physiological model, we tested the effects of purified recombinant saposin A, B, C, and D proteins on loading of αGalCer analogs.
# Recombinant murine CD1d proteins at 4 μg/ml in 50 μl PBS were coated on the surfaces of microtiter plate wells for 2 hr at 37°C and then washed with PBS for removal of unbound proteins. Subsequently, various concentrations of glycolipids in 0.1 M sodium phosphate buffer (pH 7.0) or 0.1 M sodium citrate buffer (pH 5.0) containing 150 mM NaCl were incubated with or without 0.05% Triton X-100 or recombinant purified human saposins A, B, C, or D at 10 μg/ml for another 2 hr at 37°C. Saposins were produced and purified as described ([Yuan et al., 2007]). After extensive washing with PBS and media, 5 × 10^4 murine iNKT hybridoma DN32.D3 cells were added in 200 μl of complete medium and incubated at 37°C for 14 hr. Supernatants were analyzed for murine IL-2 by capture ELISA.
# [1] = system: detergent-resistant membrane microdomains; assay: Flow cytometry assay of αGalCer-mCD1d complex association with detergent-resistant membrane microdomains (JAWS II cells); format: cell-based, mouse; conditions: 0.1% Triton X-100
# Protocol: The scale bar represents 10 μm. Results shown for individual cells were typical of >20 cells analyzed for each parameter with or without incubation with the indicated glycolipids. (B) Quantitation of colocalization shown in (A) for multiple randomly selected individual cells. Pearson correlation coefficient for the distribution of pixel densities for K253 or L363 fluorescence compared to cholera toxin B-specific fluorescence are plotted for each individual cell analyzed. Values for p were determined by one-way ANOVA. (C) Flow cytometry assay for αGalCer-mCD1d complex association with detergent-resistant membrane microdomains. […] Baseline fluorescence levels were recorded for 15 s, after which Triton X-100 was added to 0.1% (arrow) and recording was resumed for another ∼60 s. Each symbol indicates mean fluorescence intensity (MFI) averaged over 1 s of recording. […]
# Another property of lipid rafts is their resistance to solubilization by nonionic detergents due to their enrichment in cholesterol, sphingomyelin, and saturated acyl chains ([Pike, 2008]). To assess the localization of αGalCer-mCD1d complexes in detergent insoluble microdomains, we used a flow-cytometry-based assay that quantitates the resistance of lipid-raft-associated transmembrane proteins to extraction by low concentrations of Triton X-100 ([Gombos et al., 2004a; Peng et al., 2007]). […]
SMILES,effect of all four saposins on mCD1d loading (mCD1d; acidic pH),effect of all four saposins on mCD1d loading (mCD1d; neutral pH),"extraction of mCD1d complexes (L363 staining) by detergent, in words [1]","cofactor dependence of mCD1d loading (mCD1d; recombinant mCD1d, iNKT hybridoma IL-2 readout)"
CCCCCCCCCCCCCCC(O)C(O)C(COC1OC(CO)C(O)C(O)C1O)NC(=O)CCCCCCCCC (centres unmarked) [αGalCer-C10:0],reduced mCD1d loading,only modest enhancement,mainly localized to detergent soluble nonraft domains,
CCCCCC=CCC=CCCCCCCCCCC(=O)NC(COC1OC(CO)C(O)C(O)C1O)C(O)C(O)CCCCCCCCCCCCCC (centres unmarked) [αGalCer-C20:2],,,significant extraction by detergent,
"CCCCCCCCCCCCCCCCCCCCCCCCCC(=O)NC(COC1OC(CO)C(O)C(O)C1O)C(O)C(O)CCCCCCCCCCCCCC (centres unmarked) [αGalCer-C26:0, reference compound]",,,,dependent either on the presence of detergent (0.1% Triton X-100) or on the presence of a purified saposin
